According to patent US20240307299A1, “SELF-EMULSIFYING DRUG DELIVERY (SEDDS) FOR OPHTHALMIC DRUG DELIVERY” (priority 2015, published 2024):
Where two headings read alike, the source gives them in different places.

Test system: New Zealand White female rabbits
Assay type: in vivo
Method: The ocular tolerability of the various pharmaceutical-grade excipients used in our formulations was evaluated in vivo using New Zealand White female rabbits. A total of ten test groups with three rabbits each were used to test the materials listed below in Table 16. Dosing in each group was done by instilling one drop of material at the lowest concentration into the left eye of the first rabbit. If not tolerated, dosing was stopped. If tolerated, one drop of the same concentration was instilled into the left eye of the second rabbit and then again for the third rabbit. If a concentration was tolerated by 3 rabbits, dosing continued in the same pattern with the next higher concentration, if applicable.
Sample compositions, specifically, the vehicle used to dilute the materials tested, are listed in the next table (Table 17).

CC(O)CO (centres unmarked) [Propylene Glycol]
Concentration at which the not tolerated finding was seen (lowest concentration not tolerated): 10%
Concentration not tolerated (topical ocular, rabbits): 10%

PEG 400
Concentration at which the not tolerated finding was seen (rabbit, in vivo): 20%
Maximum Tolerated Concentration (rabbit, in vivo): 10 % w/w
Reason Not Tolerated: Ocular discomfort (score) (rabbit, in vivo): +3, 1 Ocular discomfort seen at

PEG (polyethylene glycol) 300 [PEG 300]
Concentration at which the not tolerated finding was seen (rabbit, in vivo): 10%

polyoxyethylene sorbitan monooleate [PS80]
Concentration at which the not tolerated finding was seen (rabbit, in vivo): 40%
Maximum Tolerated Concentration (rabbit, in vivo): 30 % w/w
